{"source": "patent US9363996B2", "about": "“Compositions and method for blocking ethylene response in field crops using 3-(cy-clopropyl-l-enyl)-propanoic salt” (Yissum Research Development Company of the Hebrew …, priority 2009, dated 2016)", "key": {"young cotton seedlings": {"system": "young cotton seedlings", "assay": "Ethylene-induced leaf epinasty of young cotton seedlings", "type": "in vivo, cotton (Gossyium hirsutum barbadense L.)", "experimental": "(1) Abscission-This is a very sensitive model system for studying the effects of plant hormones. Ethylene induces the process of abscission, while auxin delays it. In the laboratory the experimental system is based on plant organ explants, which include the abscission zone. Abscission is induced by exposure to ethylene and at the termination of the experiment the number of abscised organs, usually either leaf blades or petioles are counted and the fraction of abscission is calculated. In the case of fruit, the decrease in fruit retention force is analyzed. […] The plants or explants are then further exposed for 24 h to ethylene gas (5 to 20 μL L^-1). The plants or explants are then ventilated and incubated for the required time under controlled conditions. At the end of the experiment the percentage of abscission is determined. […] Plant material (whole plants, excised leaves or leaf discs) are pretreated. […] The plants or explants are then ventilated and incubated for the required time under controlled conditions. At the end of the experiment a dimethylsulfoxide (DMSO) extract of the plant tissue is prepared, and the chlorophyll content of the extract is determined by spectrophotometric analysis. […] The extent of ethylene-induced epinasty of leaves is determined by measuring the change of the angle between the petiole and the stem shoot or blade. […]"}, "Winter wheat": {"system": "Winter wheat", "assay": "Field experiment in wheat: seed yield and seed weight", "type": "in vivo, Winter wheat (Ttriticum aestivum, var. Galil)", "settings": "for yield increase over the control, hand-separated: g/100 spikes; for seed yield increase compared to the untreated control, mechanically thresh separated: g/plot", "from_the_text": "Plant material and experimental design—Winter wheat (Ttriticum aestivum, var. Galil) was sown in December 2008 in a medium-heavy soil in the farm of the Volcani Center, Agricultural Research Organization, Bet-Dagan, Israel. Winter rainfall between October and March was 515 mm. The crop was raised without irrigation. The plants were sprayed twice with insecticide in November with ‘Tunex’ (one L/acre) and in December with ‘Oror Turbo’ (200 g/acre). The experiment started in mid-March, 2009. Six blocks were randomly selected, and each block was further randomly divided into four treatment plots of two square meters each (FIG. 67A—right and left). Two-meter-wide strips of untreated plants served as border lines between the blocks (FIG. 67A—center). The following treatments were applied: 1. control; 2. spraying WS-CPD at the ‘Milky’ stage I (30.3.09); 3. spraying WS-CPD at the ‘Milky’ stage II (17.4.09); 4. two successive WS-CPD sprays as above (30.3.09 and 17.4.09).\nTreatments—The treatment solution of WS-CPD contained 120 μg mL^−1 of WS-CPD in 10 mM K-phosphate buffer (pH 7.6) and 0.1% of ‘Kinetic’ surfactant. Spraying (about 0.8 L/two square meters) was applied with a portable sprayer (ACL 7-L, Great Brittan). The controls were sprayed with the treatment solution without WS-CPD. The spraying was aimed to cover the upper part of the plants, from the second leaf below the ‘Flag leaf’ and up, covering the whole spike.\nDetermination of seed development—In order to follow the dynamics of seed development from ‘Milky’ stage I to seed maturity, groups of 200 spikes were sampled from the border strips. Samples were taken on 30.3.09 (‘Milky’ stage I), 17.4.09 (‘Milky’ stage II), and 19.5.09 (seed maturity). The spikes were brought to the laboratory and dried in an oven (60° C.) until complete dryness. After drying, the seeds were separated from each spike, counted, and their weight was recorded to determine the average seed weight for each spike. The number of spikes with the same average seed weight of each treatment was expressed as percent of total spike number.\nHarvesting—At the termination of the experiment (19.5.09), when the seeds reached full maturity, the spikes from all six blocks were harvested, counted, and placed on tables in the greenhouse for 12 days to reach complete dryness (FIG. 67B).\nHand seed separation—One hundred dried spikes were randomly sampled of each plot (n=6) after harvesting. The seeds of each spike were separated (FIGS. 67C and D) and counted and their weight was determined. The seed weight of each spike was divided by the number of seeds per spike to determine the average seed weight of each spike. The number of spikes of each treatment with the same average seed weight was expressed as percent of total spike number.\nMechanical thresh seed separation—The remaining dry spikes of each experimental plot were counted and mechanically thresh separated (Kurt Pelz Co., Germany) from their glumes and chafes, and their dry weight was recorded (g/plot). For comparison of the yield weight of the controls between mechanical thresh and hand separation, 200 seeds from each method were randomly sampled.\nEffect of WS-CPD on Yield—This effect of WS-CPD was studied by two ways: a) calculating the yield of each experimental plot (g/plot) and; b) calculating the yield dry weight of 100 spikes randomly selected in each experimental plot (g/100 spikes)."}, "[1]": {"settings": "WS-CPD 120 μg mL^−1 spray at 'Milky' stage I"}, "[2]": {"settings": "WS-CPD 120 μg mL^−1 spray at 'Milky' stage II"}}}
{"smiles": "O=C([O-])CCC1=CC1.[Na+]", "note": "[WS-CPD, 3-cyclopropyl-1-enyl-propanoic sodium salt]", "values": [{"measurement": "ethylene-induced leaf epinasty", "setting": "young cotton seedlings; WS-CPD 10 and 30 μg mL^−1, ethylene 10 μL L^−1", "result": "completely reversed"}, {"measurement": "ethylene-induced epinasty", "setting": "young cotton seedlings; WS-CPD spray 10 to 300 μg mL^−1, 24 h later ethylene 10 μL L^−1 for 24 h, three-week-old seedlings", "result": "completely antagonized"}, {"measurement": "yield increase over the control, hand-separated", "setting": "Winter wheat; [1]", "result": "about 15±2.6%"}, {"measurement": "seed yield increase compared to the untreated control, mechanically thresh separated", "setting": "Winter wheat; [1]", "result": "about 5%"}, {"measurement": "yield increase over the control, hand-separated", "setting": "Winter wheat; [2]", "result": "about 8%"}, {"measurement": "seed yield increase compared to the untreated control, mechanically thresh separated", "setting": "Winter wheat; [2]", "result": "~8", "unit": "%"}, {"measurement": "increase of seed weight", "setting": "Winter wheat; one spray at 'Milky' stage I, hand-separated, mg/seed", "result": "about 15%"}, {"measurement": "distribution of seed weight at maturity versus control spikes", "setting": "Winter wheat; sprayed at 'Milky' stage I, II or both", "result": "always significantly heavier"}, {"measurement": "yield, hand-separated", "setting": "Winter wheat; spraying twice at 'Milky' stages I+II versus one spray at stage I", "result": "no advantage"}, {"measurement": "seed yield, mechanically thresh separated", "setting": "Winter wheat; spraying twice at 'Milky' stages I+II versus spraying once", "result": "no advantage"}]}
